Experimental data reported in US20250223328A1, “TRUNCATED DOMINANT NEGATIVE CEBPB AND CEBPD PROTEINS AND METHODS OF USE FOR DECREASING VIABILITY OF NEOPLASTIC CELLS” (The Trustees of Columbia University in the City of New York, priority 2022, published 2025).

Key:
[1] = system: HCT116 colon cancer cells; experiment: Apoptotic nuclei in HCT116 cells transfected with DNA vectors expressing the constructs; assay type: cell-based
Source text: FIG. 1 is a graph reporting exemplary data showing 3-box dominant negative forms of CEBPD promote apoptotic death of cancer cells. Replicate cultures of HCT116 colon cancer cells were transfected with DNA vectors expressing D-mut (a control peptide containing only the leucine zipper domain of CEBPD with all leucines in position 5 (also referred to as position “d”) of the heptad repeats mutated to glycine to suppress leucine zipper binding activity), D-1234, D-123, and D-234. Three days later, transfected cells were scored for proportion with apoptotic nuclei. Data represent means±SEM (n=4). P values vs D-mut (T-test): D-1234, p=0.0005; D-123, p=0.0014; D-234, p=0.0003.
FIG. 2 is a graph reporting exemplary data showing 2-box dominant negative forms of CEBPD promote apoptotic death of cancer cells. Replicate cultures of HCT116 cells were transfected with DNA vectors expressing D-mut, D-1234, D-12, D-23, or D-34. Three days later, transfected cells were scored for proportion with apoptotic nuclei. Data represent means±SEM (n=12 from 3 independent experiments). P values vs D-mut: D-1234, p<0.0001; D-12, p=0.056; D-23, p<0.001; D-34, p=0.0008.
FIG. 12 is a graph reporting exemplary data showing D-123EWE and D-123EKE peptides promote apoptotic death of cancer cells. Replicate cultures of HCT116 cells were transfected with an empty DNA vector or DNA vectors expressing D-123, D-123EWE, or D-123EKE. Two days later, transfected cells were scored for proportion with apoptotic nuclei. Data are pooled from two independent experiments, each with n=4. Data represent means±SEM.

[2] = system: T98G, MDA-MB-231, A375, Shep21N, and CHLA255 cell lines; experiment: Cell numbers after 6 days of peptide treatment in a panel of cancer cell lines; assay type: cell-based; settings: medium with 2% fetal bovine serum, five cell lines
Method: FIGS. 3A-3E are graphs reporting exemplary data showing truncated dominant negative forms of CEBPD reduce cancer cell numbers. Replicate cultures of T98G (FIG. 3A), MDA-MB-231 (FIG. 3B), A375 (FIG. 3C), Shep21N (FIG. 3D), and CHLA255 (FIG. 3E) cell lines were treated with CP-D-123 at the indicated concentrations for 6 days in culture medium containing 2% fetal bovine serum and then assessed for cell numbers. Values are given as means±SEM (N=3 replicate cultures).
FIGS. 4A-4E are graphs reporting exemplary data showing truncated dominant negative forms of CEBPD reduce cancer cell numbers. Replicate cultures of T98G (FIG. 4A), MDA-MB-231 (FIG. 4B), A375 (FIG. 4C), Shep21N (FIG. 4D), and CHLA255 (FIG. 4E) cell lines were treated with CP-D-123, CP-D-234, and Bpep (at 20 μM in T98G, MDA-MB-231, A375 only) at the indicated concentrations for 6 days in culture medium containing 2% fetal bovine serum and then assessed for cell numbers. Values are given as means±SEM (N=3 replicate cultures).

[3] = HCT116, three days after transfection, control D-mut
[4] = HCT116, two days after transfection, compared with D-123

Substance | Proportion of transfected cells with apoptotic nuclei [1, 3] | other results
KLVELSAENEKLHQ (SEQ ID NO: 54 - D-12) [Construct D-12] | active in causing apoptosis | –
RQIKIWFQNRRMKWKKENEKLHQRVEQLTRDLAGLRQ (SEQ ID NO: 53 - CP-D-234) | – | Reduction of cell numbers [2]: lower and less consistent in activity than CP-D-123
KLVELSAENEKLHQRVEQLTR (SEQ ID NO: 50 - D-123) [Construct D-123] | comparable rates to the full length D-1234 construct | –
ENEKLHQRVEQLTRDLAGLRQ (SEQ ID NO: 52 - D-234) [Construct D-234] | comparable rates to the full length D-1234 construct | –
ENEKLHQRVEQLTR (SEQ ID NO: 56 - D-23) [Construct D-23] | active in causing apoptosis | –
RVEQLTRDLAGLRQ (SEQ ID NO: 58 - D-34) [Construct D-34] | active in causing apoptosis | –
ELVELEA KNEKLKQ EVEQLER (ELVELEAKNEKLKQEVEQLER; SEQ ID NO: 100 - D-123EKE) [Construct D-123EKE] | – | Proportion of transfected cells with apoptotic nuclei [1, 4]: activity comparable or greater to that of the D-123 peptide
ELVELEA ENEKLHQ EVEQLER (ELVELEAENEKLHQEVEQLER; SEQ ID NO: 90 - D-123EWE) [Construct D-123EWE] | – | Proportion of transfected cells with apoptotic nuclei [1, 4]: activity comparable or greater to that of the D-123 peptide
